In publication PMC9020739, “Identification of a two-component regulatory system involved in antimicrobial peptide resistance in Streptococcus pneumoniae” (PLoS Pathogens, 2022):
Where a SMILES comes first, the peptide text is derived from it. Bridges are numbered along the chain shown (N, C = ends). [ ]: non-standard residue; d: D form. The star is where a group is joined. Ileψ(thiazoline)Cys = CC[C@H](C)[C@H](N)C1=N[C@H](C(=O)*)CS1; dOrn = NCCC[C@@H](N)C(=O)O

Tests used:
Format in all cases: cell-based, Streptococcus pneumoniae
[1] = system: S. pneumoniae R6 mutant strains (ΔbceAB, Δtcs01, ΔbceAB/tcs01); experiment: Growth of wild-type and mutant strains in microplates with bacitracin; settings: Todd-Hewitt broth, various bacitracin concentrations, 4 biological replicates (Fig 1)
Experimental: The MIC of various antimicrobial peptides for R6, R800 and D39 strains was determined by classical 2-fold broth dilution method. Cells were first grown in Todd-Hewitt medium at 37°C without agitation and in anaerobic conditions until the absorbance reaches approximatively 0.3. Complementation strains were grown with 0.5 μM ComS inducer until the appropriate OD. Cells were then diluted at final OD600nm = 0.002 in 96-well plates containing 300 μL of Todd-Hewitt medium (and 2 μM ComS inducer for the complementation strains) with serial dilutions of antimicrobial peptides. Pneumococcal growth was monitored by a microplate reader (TECAN) at 37°C without agitation. The absorbance was followed at 600 nm every 15 min for 15 h.

[2] = system: BceAB protein levels in R6 WT strain; experiment: Quantitative proteomics (TMT labeling, LC-MS/MS); settings: R6 wild-type, bacitracin 1 μg/ml for 45 min versus untreated
Experimental: (§1) In experiments 1 and 2, we analyzed the R6 WT and R6 Δtcs01 strains treated or not with 1 μg/mL of bacitracin. In experiment 3, we analyzed the R800-Δhk01-PcomX-rr01-hk01 strain treated with either 1 μg/mL or 32 μg/mL of bacitracin.
(§2) Strains were grown in 50 mL of THY medium at 37°C without agitation and in anaerobic conditions until the absorbance reaches approximatively 0.3. After the addition of bacitracin (final concentrations of 1 or 32 μg/mL), the bacterial cultures were incubated for 45 min at 37°C with a slight mechanical agitation (60 rpm). Then, the cell density was adjusted to an OD600nm = 0.8 in 10 mL. After centrifugation at 4,000 x g for 10 min at 4°C, the pellets were resuspended with 1 mL of cold Tris-HCl 50 mM pH 7.5 and centrifuged at 10,000 x g, for 5 min at 4°C. The pellets were harvested and treated in the same conditions than previously. The contents were transferred into Eppendorf low-binding tubes. After a last centrifugation at 10,000 x g for 5 min at 4°C, the bacterial pellets were stored at -80°C. […] The proteins were quantified by using BCA assay kit (Thermo Scientific) before sending the samples to mass spectrometry analysis.
(§3) To compare the proteins abundance between the different conditions/samples, we used a multiplexed quantitation method after labeling by isobaric Tandem Mass Tags (TMT). […]
(§4) We simultaneously compared 6 TMT samples within the same experiment. In the experiment 1 we analyzed one sixplex containing R6 WT, R6 WT+ Bacitracin 1, R6 WT+ Bacitracin 2, R6 ΔTCS, R6 ΔTCS+ Bacitracin 1, R6 ΔTCS+ Bacitracin 2 labeled with reporter ions 126, 127, 128, 129, 130 and 131, respectively; and experiment 2 is a second sixplex containing R6 WT1, R6 WT2, R6 WT+ Bacitracin, R6 ΔTCS1, R6 ΔTCS2, R6 ΔTCS+ Bacitracin labeled with reporter ions 126, 127, 128, 129, 130 and 131, respectively. The calculated ratios shown in Figs 5 and S5 are: experiment 1: R6 WT+ Bacitracin (1/2)/R6WT and R6 WT+ Bacitracin (1/2)/ R6 ΔTCS+ Bacitracin (1/2); experiment 2: R6 WT+ Bacitracin /R6WT (1/2) and R6 WT+ Bacitracin/ R6 ΔTCS+ Bacitracin. […]

[3] = system: protein levels in R6 Δtcs01 strain; experiment: Quantitative proteomics (TMT labeling, LC-MS/MS)
Experimental: as §1, §2, §3, §4

CC[C@H](C)[C@H](N)C1=N[C@H](C(=O)N[C@@H](CC(C)C)C(=O)N[C@H](CCC(=O)O)C(=O)N[C@H](C(=O)N[C@H]2CCCCNC(=O)[C@H](CC(N)=O)NC(=O)[C@@H](CC(=O)O)NC(=O)[C@H](Cc3cnc[nH]3)NC(=O)[C@@H](Cc3ccccc3)NC(=O)[C@H]([C@@H](C)CC)NC(=O)[C@@H](CCCN)NC2=O)[C@@H](C)CC)CS1 [bacitracin] ({Ileψ(thiazoline)Cys}-L[dE]IK[dOrn]I[dF]H[dD]N; lactam 4-C (inferred); N-terminus assumed)
Growth of the mutant strains [1]: severely impaired | Accumulation of BceAB upon treatment [2]: 7 ± 3 fold | BceAB protein levels upon treatment ([3]; R6 Δtcs01, bacitracin 1 μg/ml for 45 min versus untreated, average): 0.99 ± 0.09 fold | Abundance of LiaS upon treatment ([3]; R6 Δtcs01 treated with bacitracin, TMT proteomics): increased by two-fold
